The values that follow come from patent US6960574B2, “Antagonists of RF-amide neuropeptides” (University of Florida, priority 2002, dated 2005).

Square brackets hold non-standard residues; d marks the D form. Peptide text beside a SMILES is read from it. * marks the point of attachment. ξ: configuration not given here. Dansyl = CN(C)c1cccc2c(S(=O)(=O)*)cccc12; ξL = CC(C)CC(N)C(=O)O

In the assay the test system is receptor labeled by the radioiodinated analogue of 1 (4, [125I]-YLFQPQRF-NH2); neuropeptide FF receptor. The assay is described as follows: Competitive radioligand binding against 4 ([125I]Y8F-amide). The conditions noted are these: mixture-based positional scanning; difference from averaged radioligand displacement of whole library (0); about 80 a.u. = 10-fold change in Ki. The source says:
Additionally, three-dimensional (3-D) molecular models of the known smaller-size neuropeptide FF antagonists 3 and 3a were constructed and their low-energy conformations were obtained in the AMBER force-field [Weiner, et al., J. Comput. Chem. 1986, 7, […].] by molecular dynamics calculations involving simulated annealing. A semi-empirical quantum chemical method with the PM3 parameterization [Stewart, J. Comput. Chem. 1989, 10, 209-220.] was used for the final geometry optimization. […] At least one of the rings in domain B is aromatic. No similarity between 3 and 3a outside these domains were apparent; therefore, the simultaneous presence of A and B domains in the structure of neuropeptide FF (1) antagonists is critical to the invention. Apparently, structural subunits (domain C) outside domains A and B should function in a cooperative manner in directing the pharmacophores into proper geometric positions when improved binding to the cognate receptor is to be obtained, which is associated with the improvement of the desired pharmacological effect. An approach involving mixture-based synthetic combinatorial libraries and positional scanning [(a) Houghten, et al., J. Med Chem. 1999, 42, 3743-3778.] was adopted in the search for preferred structural motifs in domain C that assist in achieving this objective in this invention. To allow for the use of 3 as a reference in this process, the guadinino group (A) was incorporated as part of an L-2-amino-5-{[amino(imino)methyl]amino}pentanoyl (arginyl, R, Arg) residue and 5-dimethylamino-1-naphthalenesulphonyl (dansyl) was chosen to form B (However, it must be emphasized that both R and dansyl are replaceable with moieties that bestow A and B domain attributes described in the invention).
Upon screening for residues to replace the glutamine of 3, serine (S) was the only building block in this position that increased the displacement of 4 in the radioligand-binding assay. Therefore, motifs present in dansyl-Gly-Ser-Arg-NH2, dansyl-Gly-Gln-Arg-NH2, dansyl-Gln-Ser-Arg-NH2, and dansyl-Gln-Gln-Arg-NH2 were chosen based on their affinity to the cognate receptor for further consideration as primary templates when designing the domain C of the compounds described in the invention herein. […]
On the technique in general: In a radioligand displacement assay an active substance lowers the binding of a labelled ligand.

As to `CN(C)c1cccc2c(S(=O)(=O)N[C@@H](Cc3ccccc3)C(=O)NCC(=O)N[C@@H](CCCNC(=N)N)C(N)=O)cccc12` [Dansyl-FGR-amide] (Dansyl-Phe-Gly-Arg-NH2), the “Relative Binding Index (RBI)” value was determined as 15 a.u.

In the case of `CN(C)c1cccc2c(S(=O)(=O)N[C@@H](Cc3ccccc3)C(=O)N[C@@H](Cc3cnc[nH]3)C(=O)N[C@@H](CCCNC(=N)N)C(N)=O)cccc12` [Dansyl-FHR-amide] (Dansyl-Phe-His-Arg-NH2), the “Relative Binding Index (RBI)” value was found to be 4 a.u.

For the molecule `CCC(C)C(NC(=O)C(Cc1ccccc1)NS(=O)(=O)c1cccc2c(N(C)C)cccc12)C(=O)NC(CCCNC(=N)N)C(N)=O` (stereo not drawn) [Dansyl-FIR-amide] (Dansyl-Phe-Ile-Arg-NH2; configuration not given here), the “Relative Binding Index (RBI)” value is 16 a.u.

In the case of `CN(C)c1cccc2c(S(=O)(=O)N[C@@H](Cc3ccccc3)C(=O)N[C@@H](CCCCN)C(=O)N[C@@H](CCCNC(=N)N)C(N)=O)cccc12` [Dansyl-FKR-amide] (Dansyl-Phe-Lys-Arg-NH2), the “Relative Binding Index (RBI)” value was found to be 7 a.u.

As for `CC(C)CC(NC(=O)[C@H](Cc1ccccc1)NS(=O)(=O)c1cccc2c(N(C)C)cccc12)C(=O)N[C@@H](CCCNC(=N)N)C(N)=O` (some centres unmarked) [Dansyl-FLR-amide] (Dansyl-Phe-[ξL]-Arg-NH2), the “Relative Binding Index (RBI)” value is 1 a.u.

On to `CSCC[C@H](NC(=O)[C@H](Cc1ccccc1)NS(=O)(=O)c1cccc2c(N(C)C)cccc12)C(=O)N[C@@H](CCCNC(=N)N)C(N)=O` [Dansyl-FMR-amide] (Dansyl-Phe-Met-Arg-NH2), for which the “Relative Binding Index (RBI)” value was found to be 9 a.u.

Consider `CN(C)c1cccc2c(S(=O)(=O)N[C@@H](Cc3ccccc3)C(=O)N[C@@H](CC(N)=O)C(=O)N[C@@H](CCCNC(=N)N)C(N)=O)cccc12` [Dansyl-FNR-amide] (Dansyl-Phe-Asn-Arg-NH2), for which the “Relative Binding Index (RBI)” value was found to be 11 a.u.

On to `CN(C)c1cccc2c(S(=O)(=O)N[C@@H](Cc3ccccc3)C(=O)N3CCC[C@H]3C(=O)N[C@@H](CCCNC(=N)N)C(N)=O)cccc12` [Dansyl-FPR-amide], for which the “Relative Binding Index (RBI)” value was determined as 13 a.u.

Take `CN(C)c1cccc2c(S(=O)(=O)N[C@@H](Cc3ccccc3)C(=O)N[C@@H](CCC(N)=O)C(=O)N[C@@H](CCCNC(=N)N)C(N)=O)cccc12` [Dansyl-FQR-amide] (Dansyl-Phe-Gln-Arg-NH2): the “Relative Binding Index (RBI)” value is on record as 23 a.u.

`CN(C)c1cccc2c(S(=O)(=O)N[C@@H](Cc3ccccc3)C(=O)N[C@@H](CCCNC(=N)N)C(=O)N[C@@H](CCCNC(=N)N)C(N)=O)cccc12` [Dansyl-FRR-amide] (Dansyl-Phe-Arg-Arg-NH2): the “Relative Binding Index (RBI)” value came out at 8 a.u.

In the case of `CN(C)c1cccc2c(S(=O)(=O)N[C@@H](Cc3ccccc3)C(=O)N[C@@H](CO)C(=O)N[C@@H](CCCNC(=N)N)C(N)=O)cccc12` [Dansyl-FSR-amide] (Dansyl-Phe-Ser-Arg-NH2), the “Relative Binding Index (RBI)” value is recorded as 30 a.u.

For `C[C@@H](O)[C@H](NC(=O)[C@H](Cc1ccccc1)NS(=O)(=O)c1cccc2c(N(C)C)cccc12)C(=O)N[C@@H](CCCNC(=N)N)C(N)=O` [Dansyl-FTR-amide] (Dansyl-Phe-Thr-Arg-NH2), the “Relative Binding Index (RBI)” value is on record as 15 a.u.

Turning to `CC(C)[C@H](NC(=O)[C@H](Cc1ccccc1)NS(=O)(=O)c1cccc2c(N(C)C)cccc12)C(=O)N[C@@H](CCCNC(=N)N)C(N)=O` [Dansyl-FVR-amide] (Dansyl-Phe-Val-Arg-NH2), the “Relative Binding Index (RBI)” value was 5 a.u.

For `CN(C)c1cccc2c(S(=O)(=O)N[C@@H](Cc3ccccc3)C(=O)N[C@@H](Cc3c[nH]c4ccccc34)C(=O)N[C@@H](CCCNC(=N)N)C(N)=O)cccc12` [Dansyl-FWR-amide] (Dansyl-Phe-Trp-Arg-NH2), the “Relative Binding Index (RBI)” value amounted to 18 a.u.

With `CN(C)c1cccc2c(S(=O)(=O)N[C@@H](Cc3ccccc3)C(=O)N[C@@H](Cc3ccc(O)cc3)C(=O)N[C@@H](CCCNC(=N)N)C(N)=O)cccc12` [Dansyl-FYR-amide] (Dansyl-Phe-Tyr-Arg-NH2), the “Relative Binding Index (RBI)” value came to 8 a.u.

Consider `C[C@H](NC(=O)CNS(=O)(=O)c1cccc2c(N(C)C)cccc12)C(=O)N[C@@H](CCCNC(=N)N)C(N)=O` [Dansyl-GAR-amide] (Dansyl-Gly-Ala-Arg-NH2), for which the “Relative Binding Index (RBI)” value is reported as −24 a.u.

Turning to `CN(C)c1cccc2c(S(=O)(=O)NCC(=O)N[C@@H](CC(=O)O)C(=O)N[C@@H](CCCNC(=N)N)C(N)=O)cccc12` [Dansyl-GDR-amide] (Dansyl-Gly-Asp-Arg-NH2), the “Relative Binding Index (RBI)” value is on record as 7 a.u.

For `CN(C)c1cccc2c(S(=O)(=O)NCC(=O)N[C@@H](CCC(=O)O)C(=O)N[C@@H](CCCNC(=N)N)C(N)=O)cccc12` [Dansyl-GER-amide] (Dansyl-Gly-Glu-Arg-NH2), the “Relative Binding Index (RBI)” value came out at 25 a.u.

In the case of `CN(C)c1cccc2c(S(=O)(=O)NCC(=O)N[C@@H](Cc3ccccc3)C(=O)N[C@@H](CCCNC(=N)N)C(N)=O)cccc12` [Dansyl-GFR-amide] (Dansyl-Gly-Phe-Arg-NH2), the “Relative Binding Index (RBI)” value stood at 24 a.u.

`CN(C)c1cccc2c(S(=O)(=O)NCC(=O)NCC(=O)N[C@@H](CCCNC(=N)N)C(N)=O)cccc12` [Dansyl-GGR-amide]: the “Relative Binding Index (RBI)” value was found to be 30 a.u.

As for `CN(C)c1cccc2c(S(=O)(=O)NCC(=O)N[C@@H](Cc3c[nH]cn3)C(=O)N[C@@H](CCCNC(=N)N)C(N)=O)cccc12` [Dansyl-GHR-amide] (Dansyl-Gly-His-Arg-NH2), the “Relative Binding Index (RBI)” value was 19 a.u.

Take `CC[C@H](C)[C@H](NC(=O)CNS(=O)(=O)c1cccc2c(N(C)C)cccc12)C(=O)N[C@@H](CCCNC(=N)N)C(N)=O` [Dansyl-GIR-amide] (Dansyl-Gly-Ile-Arg-NH2): the “Relative Binding Index (RBI)” value was 32 a.u.

Take `CN(C)c1cccc2c(S(=O)(=O)NCC(=O)N[C@@H](CCCCN)C(=O)N[C@@H](CCCNC(=N)N)C(N)=O)cccc12` [Dansyl-GKR-amide] (Dansyl-Gly-Lys-Arg-NH2): the “Relative Binding Index (RBI)” value worked out at 23 a.u.

Consider `CC(C)C[C@H](NC(=O)CNS(=O)(=O)c1cccc2c(N(C)C)cccc12)C(=O)N[C@@H](CCCNC(=N)N)C(N)=O` [Dansyl-GLR-amide] (Dansyl-Gly-Leu-Arg-NH2), for which the “Relative Binding Index (RBI)” value is 17 a.u.

Turning to `CSCC[C@H](NC(=O)CNS(=O)(=O)c1cccc2c(N(C)C)cccc12)C(=O)N[C@@H](CCCNC(=N)N)C(N)=O` [Dansyl-GMR-amide] (Dansyl-Gly-Met-Arg-NH2), the “Relative Binding Index (RBI)” value turned out to be 25 a.u.

On to `CN(C)c1cccc2c(S(=O)(=O)NCC(=O)N[C@@H](CC(N)=O)C(=O)N[C@@H](CCCNC(=N)N)C(N)=O)cccc12` [Dansyl-GNR-amide] (Dansyl-Gly-Asn-Arg-NH2), for which the “Relative Binding Index (RBI)” value was 26 a.u.

In the case of `CN(C)c1cccc2c(S(=O)(=O)NCC(=O)N3CCC[C@H]3C(=O)N[C@@H](CCCNC(=N)N)C(N)=O)cccc12` [Dansyl-GPR-amide] (Dansyl-Gly-Pro-Arg-NH2), the “Relative Binding Index (RBI)” value is given as 28 a.u.

`CN(C)c1cccc2c(S(=O)(=O)NCC(=O)N[C@@H](CCC(N)=O)C(=O)N[C@@H](CCCNC(=N)N)C(N)=O)cccc12` [Dansyl-GQR-amide, dansyl-Gly-Gln-Arg-NH2] (Dansyl-Gly-Gln-Arg-NH2): the “Relative Binding Index (RBI)” value was found to be 39 a.u.

Regarding `CN(C)c1cccc2c(S(=O)(=O)NCC(=O)N[C@@H](CCCNC(=N)N)C(=O)N[C@@H](CCCNC(=N)N)C(N)=O)cccc12` [Dansyl-GRR-amide], the “Relative Binding Index (RBI)” value is given as 24 a.u.
